PubChem BioAssay (NCI)
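Tested at 5 concentrations; 48 h exposure; 96-well plates; endpoints linearly interpolated, else capped at highest concentration. At the TGI there is no net growth.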

Assays:
Assay in all cases: DTP human tumour cell line panel, 48 h
[1] = system: 786-0 renal
[2] = system: A498 renal
[3] = system: A549 NSCLC
[4] = system: ACHN renal
[5] = system: CAKI-1 renal
[6] = system: CCRF-CEM leukemia
[7] = system: COLO 205 colon
[8] = system: DLD-1 colon
[9] = system: DMS 273 small cell lung
[10] = system: EKVX NSCLC
[11] = system: HCC-2998 colon
[12] = system: HCT-15 colon
[13] = system: HL-60(TB) leukemia
[14] = system: HOP-62 NSCLC
[15] = system: HT29 colon
[16] = system: IGROV1 ovarian
[17] = system: K-562 leukemia
[18] = system: KM12 colon
[19] = system: KM20L2 colon
[20] = system: LOX IMVI melanoma
[21] = system: LXFL 529 NSCLC
[22] = system: M14 melanoma
[23] = system: M19-MEL melanoma
[24] = system: MALME-3M melanoma
[25] = system: MOLT-4 leukemia
[26] = system: NCI-H226 lung
[27] = system: NCI-H23 lung
[28] = system: NCI-H460 lung
[29] = system: NCI-H522 lung
[30] = system: OVCAR-4 ovarian
[31] = system: OVCAR-8 ovarian
[32] = system: RPMI-8226 leukemia
[33] = system: RXF 393 renal
[34] = system: SF-295 CNS
[35] = system: SF-539 CNS
[36] = system: SK-MEL-2 melanoma
[37] = system: SK-MEL-5 melanoma
[38] = system: SN12C renal
[39] = system: SNB-19 CNS
[40] = system: SNB-75 CNS
[41] = system: SR leukemia
[42] = system: SW-620 colon
[43] = system: U251 CNS
[44] = system: UACC-257 melanoma
[45] = system: UACC-62 melanoma
[46] = system: XF 498 CNS
[47] = system: DMS 114 small cell lung
[48] = system: HCT-116 colon
[49] = system: HOP-18 NSCLC
[50] = system: HOP-92 NSCLC
[51] = system: OVCAR-3 ovarian
[52] = system: OVCAR-5 ovarian
[53] = system: SF-268 CNS
[54] = system: SK-MEL-28 melanoma
[55] = system: SK-OV-3 ovarian
[56] = system: SNB-78 CNS
[57] = system: TK-10 renal
[58] = system: UO-31 renal
[59] = system: RXF-631 renal

Measured: TGI

COc1ccc(S(=O)(=O)N/N=C/CN2C(=O)c3ccccc3C2=O)cc1
not listed: [47] | [48] | [49] | [50] | [51] | [52] | [53] | [54] | [55] | [56] | [57] | [58] | [59]
> 100 µM: all other assays above

COc1cc2c(cc1OC)C(=O)N1CCCC1C(=O)S2 (stereo not given)
not listed: [2] | [5] | [15] | [23] | [26] | [30] | [40] | [59]
> 100 µM: all other assays above

N#CC12CC3(CCC1CCC1(C2)OCCO1)OCCO3 (stereo not given)
not listed: [15]
> 100 µM: all other assays above
